Data set [1] can be described thus: Stability of pharmaceutical formulations (1 mg/mL solutions). The class given is physicochemical. To be noted: 5° C. On the procedure: The samples were sonicated to achieve clear solutions having the following properties: Osmolality (mOsm/kg): 310 (Na), 314 (HCl); pH: 7.00 (Na), 7.05 (HCl). 0.5 mL of the stock solutions were diluted to 1 mL with 20% DMSO in water & injected for purity analysis by HPLC. The remaining stock solutions were then split into aliquots of 0.5 mL in HPLC vials, and stored at various conditions in duplicate. Samples were stored at 5 and 25° C., before being analysed by HPLC at 1, 2 and 4 weeks. Separate samples were stored at 40° C. and analysed at 4 weeks.

For the next data set, the system named is PBMCs. In words: Cell mitosis assay (assay g). The class given is cell-based, human. On the procedure: Peripheral blood mononucleocytes (PBMCs) from healthy subjects are separated from whole blood (Quintiles, London, UK) using a density gradient (Histopaque-1077, Sigma-Aldrich, Poole, UK). The PBMCs (3 million cells per sample) are subsequently treated with 2% PHA (phytohaemagglutinin, Sigma-Aldrich, Poole, UK) for 48 hr, followed by a 20 hr exposure to varying concentrations of test compounds. At 2 hr before collection, PBMCs are treated with demecolcine (0.1 μg/mL; Invitrogen, Paisley, UK) to arrest cells in metaphase. To observe mitotic cells, PBMCs are permeabilised and fixed by adding Intraprep (50 μL; Beckman Coulter, France), and stained with anti-phospho-histone 3 (0.26 ng/L; #9701; Cell Signalling, Danvers, Mass.) and propidium iodide (1 mg/mL; Sigma-Aldrich, Poole, UK) as previously described (Muehlbauer P. A. and Schuler M. J., Mutation Research, 2003, 537:117-130). Fluorescence is observed using an ATTUNE flow cytometer (Invitrogen, Paisley, UK), gating for lymphocytes.

Another data set concerns the target c-Src (Homo sapiens (Human), UniProt P12931). In words: c-Src enzyme inhibition, Z-LYTE FRET. The data set is classed as biochemical. On the procedure:
The relevant enzyme (3000 ng/mL or 2000 ng/mL respectively, 2.5 μL) is incubated with the test compound (either 1 μg/mL, 0.1 μg/mL, 0.01 μg/mL, or 0.001 μg/mL, 2.5 μL each) for 2 hr at RT. The FRET peptides (8 μM, 2.5 μL), and appropriate ATP solutions (2.5 μL, 800 μM for c-Src, and 60 μM ATP for Syk) are then added to the enzymes/compound mixtures and the mixture incubated for 1 hr. Development reagent (protease, 5 μL) is added for 1 hr prior to detection in a fluorescence microplate reader (Varioskan® Flash, ThermoFisher Scientific).
In all cases, the site-specific protease cleaves non-phosphorylated peptide only and eliminates the FRET signal. Phosphorylation levels of each reaction are calculated using the ratio of coumarin emission (donor) over fluorescein emission (acceptor), for which high ratios indicate high phosphorylation and low ratios indicate low phosphorylation levels.

The target of a further data set is GSK3α (Homo sapiens (Human), UniProt P49840). Description: GSK3α enzyme inhibition (Method 2), Z-LYTE FRET. The data set is classed as biochemical. On the procedure: The enzyme inhibitory activities of the compound disclosed herein are determined by FRET using synthetic peptides labelled with both donor and acceptor fluorophores (Z-LYTE, Invitrogen Ltd., Paisley, UK).
GSK3α, sequence (P49840 whole entry, canonical isoform): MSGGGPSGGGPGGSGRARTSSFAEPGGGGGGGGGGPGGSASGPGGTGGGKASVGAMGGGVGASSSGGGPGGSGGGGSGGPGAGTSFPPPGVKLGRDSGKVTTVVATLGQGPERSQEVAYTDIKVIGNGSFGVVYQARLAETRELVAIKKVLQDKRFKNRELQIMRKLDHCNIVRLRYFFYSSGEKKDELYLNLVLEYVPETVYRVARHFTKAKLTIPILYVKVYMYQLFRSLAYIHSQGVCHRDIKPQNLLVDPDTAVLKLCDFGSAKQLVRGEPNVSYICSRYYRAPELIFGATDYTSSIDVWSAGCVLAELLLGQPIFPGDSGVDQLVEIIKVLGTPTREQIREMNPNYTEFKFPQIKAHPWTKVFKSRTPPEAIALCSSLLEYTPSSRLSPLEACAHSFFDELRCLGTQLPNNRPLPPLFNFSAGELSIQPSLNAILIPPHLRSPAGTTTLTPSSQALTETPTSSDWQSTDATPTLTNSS
The inhibitory activities of the compound of the invention against the GSK 3α enzyme isoform (Invitrogen), are evaluated by determining the level of activation/phosphorylation of the target peptide. The GSK3-α protein (500 ng/mL, 2.5 μL) is mixed with the test compound (2.5 μL at either 4 μg/mL, 0.4 μg/mL, 0.04 μg/mL, or 0.004 μg/mL) for 2 hr at RT. The FRET peptide (8 μM, 2.5 μL), which is a phosphorylation target for GSK3α, and ATP (40 μM, 2.5 μL) are then added to the enzyme/compound mixture and the resulting mixture incubated for 1 hr. Development reagent (protease, 5 μL) is added for 1 hr prior to detection in a fluorescence microplate reader (Varioskan® Flash, ThermoFisher Scientific).
In all cases, the site-specific protease cleaves non-phosphorylated peptide only and eliminates the FRET signal. Phosphorylation levels of each reaction are calculated using the ratio of coumarin emission (donor) over fluorescein emission (acceptor), for which high ratios indicate high phosphorylation and low ratios indicate low phosphorylation levels. […]

The next data set addresses B-Raf (V600E) (Homo sapiens (Human), UniProt P15056, V600E). In words: KINOMEscan binding of B-Raf (V600E) to standard ligand. An excerpt:
These assays may be conducted by DiscoverX (formerly Ambit; San Diego, Calif.).

Data set [2] in a line: Solubility in fasted-state simulated colonic fluid (FaSSCoF). The class given is physicochemical. On the procedure: The solubility of the compound of the invention in FaSSCoF at pH 6.5 is determined using a modification of a previously-reported procedure (Vertzoni, M., et al. Pharm. Res. 2010, 27, 2187-2196). In place of the bile salt extract employed in the original procedure (which extract is no longer available), the modified procedure uses a mixture of sodium taurochlorate (0.15 g), glycocholic acid (0.15 g), ursodeoxycholic acid (0.05 g), cholic acid (0.05 g), and glycodeoxycholic acid (0.05 g). These five bile acids are ground together with a mortar and pestle to produce a fine white powder that is incorporated into the FaSSCoF, as outlined below.
FaSSCoF medium: Tris(hydroxymethyl)aminomethane (Tris; 0.275 g) and maleic acid (0.44 g) are dissolved in water (35 mL) to give a solution whose pH is adjusted to 6.5 by treatment with 0.5M NaOH (ca. 12 mL). The solution is then made up to 50 mL with water. A portion of this Tris/maleate buffer solution (ca. 25 mL) is added to a 0.5 L round-bottomed flask, before being treated with 0.00565 g of the bile acid mixture described above. Solutions of phosphatidylcholine (0.0111 g) in DCM (0.15 mL) and palmitic acid (0.0013 g) in DCM (0.15 mL) are added, then the organic solvent is evaporated off under reduced pressure at 40° C. until a clear solution, with no perceptible DCM odour, is achieved. The volume of the evaporated solution is adjusted to 50 mL by addition of the remainder of Tris/maleate buffer, then BSA (0.115 g) is added, before being dissolved by gentle agitation.
Solubility Determination: Test compounds are suspended in the pH 6.5 FaSSCoF medium to give a maximum final concentration of 2-10 mg/mL. The suspensions are equilibrated at 25° C. for 24 h, before being filtered through a glass fibre C filter. The filtrates are then diluted as appropriate for injection and quantification by HPLC with reference to a standard. Different volumes of the standard, diluted and undiluted sample solutions are injected and the solubilities are calculated using the peak areas determined by integration of the peak found at the same retention time as the principal peak in the standard injection.

Each structure is given as a SMILES string. Converted amounts (≈) assume the structure as drawn. Some results are limits rather than exact numbers.

c-Src, sequence (P12931 whole entry, looked up): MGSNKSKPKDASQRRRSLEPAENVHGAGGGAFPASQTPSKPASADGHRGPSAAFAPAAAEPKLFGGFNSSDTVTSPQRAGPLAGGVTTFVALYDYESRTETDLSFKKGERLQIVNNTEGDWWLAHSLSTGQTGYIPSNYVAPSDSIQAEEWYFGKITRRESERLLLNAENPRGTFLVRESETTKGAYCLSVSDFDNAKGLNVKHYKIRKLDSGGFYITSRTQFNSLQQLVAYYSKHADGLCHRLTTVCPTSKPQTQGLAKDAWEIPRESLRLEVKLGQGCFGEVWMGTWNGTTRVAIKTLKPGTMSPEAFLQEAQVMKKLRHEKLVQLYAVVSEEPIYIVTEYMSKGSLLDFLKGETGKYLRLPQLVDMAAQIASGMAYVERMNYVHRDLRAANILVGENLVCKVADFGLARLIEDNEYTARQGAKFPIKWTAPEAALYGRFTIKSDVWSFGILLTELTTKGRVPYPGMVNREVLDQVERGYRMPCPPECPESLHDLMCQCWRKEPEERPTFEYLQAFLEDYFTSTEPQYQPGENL
B-Raf (V600E), sequence (P15056 whole entry V600E): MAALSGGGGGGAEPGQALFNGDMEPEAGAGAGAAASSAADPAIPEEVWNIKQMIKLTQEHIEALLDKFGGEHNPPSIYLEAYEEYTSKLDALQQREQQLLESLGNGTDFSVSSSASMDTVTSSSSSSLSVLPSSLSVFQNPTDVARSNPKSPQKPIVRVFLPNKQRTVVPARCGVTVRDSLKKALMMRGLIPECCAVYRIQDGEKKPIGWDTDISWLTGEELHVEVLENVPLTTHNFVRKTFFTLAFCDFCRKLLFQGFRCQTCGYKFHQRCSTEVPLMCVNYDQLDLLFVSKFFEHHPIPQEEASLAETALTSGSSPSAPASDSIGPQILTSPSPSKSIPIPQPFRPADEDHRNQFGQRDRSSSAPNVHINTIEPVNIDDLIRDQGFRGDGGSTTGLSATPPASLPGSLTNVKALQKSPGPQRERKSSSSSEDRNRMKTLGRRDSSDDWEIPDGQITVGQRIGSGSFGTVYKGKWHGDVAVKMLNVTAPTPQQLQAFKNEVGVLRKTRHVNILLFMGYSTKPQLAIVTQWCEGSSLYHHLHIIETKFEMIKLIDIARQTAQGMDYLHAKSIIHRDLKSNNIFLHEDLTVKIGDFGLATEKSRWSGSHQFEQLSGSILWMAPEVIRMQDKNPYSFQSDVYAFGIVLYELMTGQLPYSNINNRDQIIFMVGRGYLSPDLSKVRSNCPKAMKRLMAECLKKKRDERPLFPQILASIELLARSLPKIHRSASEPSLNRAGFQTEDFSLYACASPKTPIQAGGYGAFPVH

As to `COc1cc(Nc2cc(Oc3ccc(NC(=O)Nc4cc(C(C)(C)C)cc(NS(C)(=O)=O)c4OC)c4ccccc34)ccn2)ccc1C(=O)O` [Example 1, 4-((4-((4-(3-(5-(tert-Butyl)-2-methoxy-3-(methylsulfonamido)phenyl)ureido)naphthalen-1-yl)oxy)pyridin-2-yl)amino)-2-methoxybenzoic acid], the stability in solution entry in data set [1] is on record as “stable”. Moreover, in the data set with PBMCs, the “impact on cell division (mitosis) in PBMCs compared with Reference Compound” value was “markedly less active than the Reference Compound”. Further, the IC50 (in general, the concentration at which inhibition is half-maximal) against c-Src was found to be 14 nM. The same compound displayed an IC50 at GSK3α of 115 nM. Moreover, the “effect on the binding of B-Raf (V600E) to its standard ligand” value at B-Raf (V600E) is on record as “did not have any significant effect”. For the same compound, the solubility at 24 h in data set [2] (fasted-state simulated colonic fluid (FaSSCoF), 25 °C, fassgf or other biorelevant, thermodynamic from solid, pH 6.5, text summary, read-out: solubilities in the FaSSCoF medium at pH 6.5) is greater than 10 µg/mL. Besides, the solubility thermodynamic at 24 h in data set [2] (fasted-state simulated colonic fluid (FaSSCoF), 25 °C, pH 6.5, fassgf or other biorelevant, thermodynamic from solid, pH 6.5, 25° C., 24 h, read-out: pH 6.5 FaSSCoF Solubility Run 3) was 10 µg/mL (≈ 14.3 µM). In data set [2] (pH 6.5, 25° C., 24 h), the “pH 6.5 FaSSCoF Solubility Run 1” value was 0.016 mg/mL, the “pH 6.5 FaSSCoF Solubility Run 2” value was 0.018 mg/mL and the “pH 6.5 FaSSCoF Solubility Run 4” value was 0.011 mg/mL.

Values taken from patent US9499486B2, “Kinase inhibitor” (RESPIVERT LIMITED, priority 2014, dated 2016).
